Data taken from patent publication US20080248008A1, “Inhibitors of Protein Kinase a Anchoring” (priority 2004, published 2008).
Blank lines part the entries; values can stand above or below the compound they belong to.

Assays:
PKA-RIIα = PKA-RIIα (Homo sapiens, UniProt P13861); assay: Immunofluorescence of PKA-RIIα at centrosomes in human T cells; format: cell-based; design: endogenous in cells; host or cells: human peripheral blood CD3+ T cells; details: human peripheral blood T cells
Procedure: Blots were developed by using Supersignal West Pico substrate (Pierce). For immunofluorescence polyclonal and monoclonal antibodies against RIα (Biogenesis), RIIα (Transduction laboratories) and AKAP450 (A24, Tasken et al., 2001, J. Biol. Chem, 276:21999-22002) were used as primary antibodies. Secondary antibodies (all Molecular Probes) were Alexa-488 conjugated anti-mouse and anti-rabbit IgG (both goat) and Alexa-555 anti-rabbit IgG (goat).
Immunofluorescence analysis of cells was performed as previously described (Collas, P. et al., 1996, J. Cell Biol. 135, 1715-1725). RI was detected by using an anti-RI monoclonal antibody (Transduction Laboratories) as a primary antibody at a […] and Alexa-488 as a secondary antibody (1:600, Goat anti Mouse IgGs, Molecular Probes). Immunofluorescence was performed on Y1 cells attached to collagen/fibronectin coated coverslips. Mitochondria were stained using MitoTracker Red CMXRos (Molecular Probes) in fresh medium with incubation at 37° C. for 30 min prior to cell fixation. All cells were washed in PBS, fixed with 3% paraformaldehyde and permeabilised using 0.1% Triton X-100. […] Alternatively, fluorescently labeled cells were examined using a Leica TCS SP1 confocal fluorescence microscope (Leica, Heidelberg, Germany) equipped with an Ar (488 nm) and two He/Ne (543 and 633 nm) laser lines. […]

RII = target: T1, RII (Homo sapiens, UniProt P13861); assay: Co-immunoprecipitation with RII in transfected HEK293 cells; format: cell-based; details: HEK293 cells transfected with GFP-fusion constructs
T1 construct: endogenous in cells; host or cells: HEK293
T1 sequence (P13861 whole entry, the tested form may be a part): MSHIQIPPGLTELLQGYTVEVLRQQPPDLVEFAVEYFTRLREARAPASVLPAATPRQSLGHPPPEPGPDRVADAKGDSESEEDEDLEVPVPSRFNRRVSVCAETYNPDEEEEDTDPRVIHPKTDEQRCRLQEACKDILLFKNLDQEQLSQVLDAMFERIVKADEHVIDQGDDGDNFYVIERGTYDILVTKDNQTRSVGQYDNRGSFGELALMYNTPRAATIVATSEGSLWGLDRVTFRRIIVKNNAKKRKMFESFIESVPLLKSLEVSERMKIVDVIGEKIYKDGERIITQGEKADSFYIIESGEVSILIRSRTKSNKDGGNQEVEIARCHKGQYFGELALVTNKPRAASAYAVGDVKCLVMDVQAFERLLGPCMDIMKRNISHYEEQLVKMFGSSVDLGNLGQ
Procedure: HEK293 cells at […] were transfected with ten μg of plasmid DNA (GFP, GFP-MEME3 or GFP-Scrambled MEME3) by using the CaCl2 method. Cells were lysed after 30 hours in lysis buffer (20 mM Hepes, pH 7.5/150 mM NaCl/1 mM EDTA/1% Triton X-100) with protease inhibitors (Complete Mini, EDTA-free tablets, Roche).
Immunoblot analysis. Immunocomplexes and lipid raft fractions were analysed on a 10, 15% or 4-20% PAGE and blotted onto PVDF membranes. The filters were blocked in 5% non-fat dry milk in TBST for 30 minutes at RT, incubated 1 hour at RT (or overnight at 4° C.) with primary antibodies, washed four times 5 minutes in TBST with 0.1% Tween-20 and incubated with a horseradish-peroxidase-conjugated secondary antibody. Blots were developed by using Supersignal West Dura Extended Duration Substrate or Supersignal West Pico substrate (Pierce).
Antibodies. RI or RII were immunoprecipitated with polyclonal antibodies against human RI or human RII at a 3 μg/ml dilution (Santa Cruz Biotechnology). MEME3 or scrambled peptide was immunoprecipitated with 1.5 μl of anti-GFP antiserum (Invitrogen). […]
Immunocomplexes were analysed on 10% PAGE (B and C) or 15% PAGE (D) and subjected to Western blotting using anti-GFP, anti-RI or anti-RII as indicated and blotted onto PVDF membranes. […]

PKA-RIα = PKA-RIα (Homo sapiens, UniProt P10644); assay: Solid phase pull down from T cell lysate, PKA-RIα; format: binding; design: endogenous in cells; host or cells: Jurkat T cells; details: overnight
Procedure: Solid phase assay and cell lysate. 5×10^6 Y1 cells or 20×10^6 Jurkat T cells lysed in 150 mM NaCl, 1% NP-40, 0.5% deoxycholate, 0.1% SDS and 50 mM Tris HCl (7.8) were incubated overnight at 4° C. with MEME3 and SM3 peptides synthesized on membranes (Autospot, Intavis, AG). The membranes were washed two times for 10 minutes in lysis buffer and thereafter in high salt lysis buffer (1 M NaCl) before boiling in SDS-PAGE loading buffer.
Solid phase pull down (see schematic illustration in FIG. 24A, left panel) was performed to analyse endogenous PKA binding to MEME3. MEME3 and SM3 peptides synthesized in triplicate on membranes were incubated overnight in T cell lysate, thereafter bound proteins were eluted, subjected to 10% PAGE electrophoresis and analysed by immunoblotting (FIG. 11). The presence of PKA subunits was assessed by immunoblotting using specific antibodies against PKA-RIα and PKA-RIIα subunits.

Chain of PKA-RIIα (P13861 whole entry): as the sequence (P13861 whole entry, the tested form may be a part) above

Compound: LEQYANQLADQIIKEATERRRRRRRRRrr [MEME3-Arg11]
- displacement of PKA-RIIα from centrosomes (PKA-RIIα): no displacement of PKA-RIIα

Compound: CC[C@H](C)[C@H](NC(=O)[C@H](CCC(N)=O)NC(=O)[C@H](CC(=O)O)NC(=O)[C@H](C)NC(=O)[C@H](CC(C)C)NC(=O)[C@H](CCC(N)=O)NC(=O)[C@H](CC(N)=O)NC(=O)[C@H](C)NC(=O)[C@H](Cc1ccc(O)cc1)NC(=O)[C@H](CCC(N)=O)NC(=O)[C@H](CCC(=O)O)NC(=O)[C@@H](N)CC(C)C)C(=O)N[C@H](C(=O)N[C@@H](CCCCN)C(=O)N[C@@H](CCC(=O)O)C(=O)N[C@@H](C)C(=O)N[C@H](C(=O)N[C@@H](CCC(=O)O)C(=O)N[C@@H](CCCCNC(=O)c1ccc2c(c1)C(=O)OC21c2ccc(O)cc2Oc2cc(O)ccc21)C(N)=O)[C@@H](C)O)[C@@H](C)CC [MEME3]
- co-precipitation with RII (RII): not with RII

- immobilization of PKA-RIα (PKA-RIα): Neither PKA-RIα nor PKA-RIIα bound
Compound: IEKELAQQYQNADAITLE [SM3, scrambled MEME3 negative control peptide, reference compound]
